{"source": "patent EP4140481A1", "about": "“PROTEIN-OLIGOMER BINDING AGENTS AND THERAPEUTIC USES THEREOF” (Galyan Bio, Inc., priority 2021, dated 2023)", "key": {"[1]": {"tested_on": "CREB-binding protein (CBP) colocalization with mHTT", "experiment": "Co-localization of CREB-binding protein (CBP) with mHTT", "format": "in vivo, R6/2 mice", "details": "treated animals of the R6/2 study versus untreated TG mice; p = 0.02", "source_text": "Staining - Goat anti-Rabbit IgG (H+L) Alexa Fluor 647 (1:500, ThermoFisher Invitrogen) was used as a secondary antibody for binding to CBP antibody. DAPI (Sigma-Aldrich) was used to identify the nuclei. Goat anti-Mouse IgG (H+L), Alexa Fluor 488 (1:500, A-11034, ThermoFisher Invitrogen) was used as a secondary antibody for binding to EM48 antibody. Mouse anti-human-mHTT (EM48, 1:500, Sigma-Aldrich), was used to stain huntingtin. Rabbit anti-CBP (1:100, Sigma-Aldrich) was used a primary antibody to stain CBP.\nThe blocking buffer was freshly prepared and consisted of PBS (Sigma-Aldrich) with 5% normal goat serum (NGS), 0.2% BSA, 0.2% lysine and 0.2% glycine. […] On day six, samples were washed and then incubated with DAPI containing mounting medium Fluoroshield (Sigma-Aldrich), in order to counterstain the nuclei and preserve the fluorescence. […]\nCBP colocalization with mHTT and quantitative assessment of the images were measured (Lee, J. et al., Acta Neuropathol. 2017 Nov;[…]:729-748; Steffan, J.S. et al., Nature. 2001 Oct 18;413(6857):739-743; Nucifora, F.C. et al., Science. 2001 Mar 23;291(5512):2423-2428). In brief, regions of interest (colocalized areas) in multi-channel images from two or three of the overlapping fluorescence dyes were selected using the Plugin CoLoc2 of FIJI. The colocalization score of identified areas was calculated. […]"}, "LC3": {"tested_on": "LC3", "experiment": "Autophagic flux (LC3 staining)", "format": "cell-based, mouse", "method": "Staining - Cells were permeabilized with 0.3% Triton X-100 in 4 °C PBS (pH 7.4 from ThermoFisher) for 10 minutes. Then the cells were washed two times with 4 °C PBS. Subsequently, cells are blocked with 3% NGS (normal goat serum from Thermo Fisher) in 4 ° C PBS for 1 hour. Cells were incubated with primary antibodies in blocking buffer (PBS, 3% NGS, 0.02% NaN3) over night at 4 °C. Primary antibodies were mouse antipolyglutamine monoclonal antibody 3B5H10 (Sigma-Aldrich) at 1:250 dilution and Guinea Pig anti-MAP2 polyclonal antibody (Synaptic Systems) at 1:500 dilution. […]\nFluorescence Imaging - Imaging sessions were performed on a confocal microscope system (Carl Zeiss Microscopy) equipped with a dual spinning disk unit (Yokogawa). […] The fluorescence images obtained of the immunofluorescence labelled tissue sections were quantified with the help of the \"Image Processing and Analysis in Java\" or short ImageJ software distributed under the GNU General Public License by the NIH (Rueden, C.T. et al., BMC Bioinformatics. 2017 Nov 29;18(1):529), i.e. the edition used was the Fiji distribution (Schindelin, J. et al., Nature methods. 2012 Jun 28;9(7):676-82). […]\nAutophagic flux was calculated as the area stained with LC3 antibody per cell in STHdh 111/111 with autophagy inhibitor NH4CI minus area stained with LC3 antibody per cell in STHdh 111/111 without the autophagy inhibitor NH4CI."}}}
{"smiles": "Cc1[nH]c2ccc(C(=O)NCCN(C(C)C)C(C)C)cc2c1C", "note": "[Compound 22]", "values": [{"measurement": "reduction of CBP colocalization with mHTT", "setting": "[1]", "value": 4, "unit": "fold"}, {"measurement": "autophagic flux", "setting": "LC3; STHdh 111/111, LC3 area with NH4Cl minus without NH4Cl", "value": "positive autophagic flux"}, {"measurement": "LC3 stained area", "setting": "LC3; STHdh 111/111 neurons versus untreated, p < 0.001", "value": "decreased"}]}
